Results: US20170000866A1, “METHOD FOR EMULSIFYING A TRIEPITOPE PEPTIDE WITH MONTANIDE AND KITS FOR PERFORMING THE SAME” (VAXON BIOTECH, priority 2013, published 2017)
Ends that are not written are not given here.

Assay: Vx006 solubilisation in solvents for injection
Type: physicochemical
Conditions: in water for injection
Method: For vaccinating a patient, 1 ml of solvent is added on the lyocake to resuspend the peptide, 0.7 ml of peptide in solution is then loaded in a silicone free syringe and 0.7 ml of MONTANIDE ISA51VG in a second syringe. Both syringes are then connected to the I-connector for the emulsification protocol.
According to SEPPIC recommendations, to the fact that the emulsion is performed for human administration (preventing the use of solvents as DMSO etc.), results presented in Example 1 above and solubility prediction, Vx006 was initially diluted in saline buffer. Two saline solvents were tested, NaCl 0.9% and PBS. […] Moreover, the addition of several solvents developed by Seppic and compatible with injection in humans and emulsion with MONTANIDE were tested during the Vx006 manufacturing development.
The vial can be gently agitated to accelerate the dissolution, if necessary. The dissolution can also be performed at cold temperature (0-10° C.).

Solubility: perfectly soluble
pH of the solubilised peptide: around 7
Sequence: YLQVNSLQTVYLEYRQVPVYLEEITGYL [Vx006]
